# Data: PubChem BioAssay AID1996
# Conditions: buffer; pH 7.4; 200.0 µM
row,SMILES,solubility kinetic
1,Cc1ccc(NC(=O)C(=O)C2C(=O)Nc3ccccc32)cc1 (stereo not given),39.8 µg/mL
2,Cc1ccc(C(=O)N(C)CC(=O)Nc2ccc(F)c(F)c2F)o1,> 48.9 µg/mL
3,COc1cccc(N2CCN(C(=O)CSc3ccc(F)cc3)CC2)c1,50.2 µg/mL
4,Cc1ccc(Cl)cc1NS(=O)(=O)Cc1ccccc1,9 µg/mL
5,COC(=O)Cn1cnc2scc(-c3ccc(C)c(C)c3)c2c1=O,33.7 µg/mL
6,O=C1CSC(c2ccncc2)N1Cc1ccc(F)cc1 (stereo not given),> 43.3 µg/mL
7,CC(C)[C@H](NC(=O)c1ccccc1Cl)C(=O)OCC(=O)Nc1ccc(S(=O)(=O)N2CCOCC2)cc1,40.3 µg/mL
8,CCCCOc1ccc(N=Cc2ccc[nH]2)cc1,34.9 µg/mL
9,CNc1ccc([N+](=O)[O-])cc1-c1nc2ccccc2[nH]c1=O,0.2 µg/mL
10,Cc1noc(C)c1C(=O)N(C)Cc1ccccc1,34 µg/mL
11,CCOC(=O)C1CCN(C(=S)NC2CC3C=CC2C3)CC1 (stereo not given),> 46.3 µg/mL
12,CCCCNC(=O)CC1NCCNC1=O (stereo not given),> 32 µg/mL
13,S=C(NCCc1ccc(Cl)cc1)NCc1ccccc1,16.7 µg/mL
14,CN(C(=O)c1ccco1)c1ccccc1C(=O)O,> 36.8 µg/mL
15,O=S(=O)(Cc1ccccc1)Nc1ccccc1Br,40.6 µg/mL
16,CN1C(=O)N(c2nnc(C(C)(C)C)s2)C(=O)C1c1ccccc1 (stereo not given),> 49.6 µg/mL
17,CC1CCN(C(=S)NC(=O)c2cccc([N+](=O)[O-])c2)CC1,34.2 µg/mL
18,Cc1noc(C)c1-c1nc(CS(=O)(=O)c2ccc(Cl)cc2)no1,3.8 µg/mL
19,O=C(CC12CC3CC(CC(C3)C1)C2)Nc1ccc(C(=O)O)cc1,> 47 µg/mL
20,CCn1c(C)nc2cc(C#N)ccc21,> 27.8 µg/mL
21,Cn1cccc1C(=O)OCC(=O)NC(=O)c1ccc(Cl)cc1,5.4 µg/mL
22,Cc1ccc(CNc2ccc(N3CCOCC3)c(Cl)c2)cc1,1.7 µg/mL
23,O=C(Nc1cccc(-c2cn3c(n2)SCC3)c1)c1ccc2c(c1)OCO2,18.1 µg/mL
24,COc1ccc(NC(=S)NC(=O)c2cccnc2)cc1,15.5 µg/mL

row,SMILES,solubility kinetic
1,O=C(NCc1ccccc1)c1ccccc1-c1nc2ccccc2[nH]1,2.2 µg/mL
2,COc1ccc(NC(=S)Nc2ccccn2)cc1,2.8 µg/mL
3,CC(=O)c1c(C)[nH]c(C(=O)COC(=O)CN2C(=O)C3CCCCC3C2=O)c1C (stereo not given),> 58.3 µg/mL
4,CCC(C)NC(=O)c1ccccc1SC (stereo not given),> 33.5 µg/mL
5,Cl.Fc1ccc(CN2C3=NCCN3c3ccccc32)cc1,43.2 µg/mL
6,O=C(Cn1cnc2ccccc21)c1ccc(Br)cc1,40 µg/mL
7,Cc1nc(SCc2cccnc2)[nH]c(=O)c1C,> 37.1 µg/mL
8,O=C(O)c1cc(-c2cccc([N+](=O)[O-])c2)nc2ccccc12,> 44.1 µg/mL
9,COc1ccccc1C(=O)CSc1nccn1C,35.9 µg/mL
10,CCc1ccccc1NC(=O)C1CCCN(c2ncccn2)C1 (stereo not given),8.3 µg/mL
11,CC(=O)Nc1ccc(N2CCN(Cc3ccccc3)CC2)cc1,43.5 µg/mL
12,N#Cc1ccccc1OCC(=O)NC(=O)NC1CCS(=O)(=O)C1 (stereo not given),> 50.6 µg/mL
13,CC1(C)CC(CC(=O)O)CC(C)(C)N1.Cl,> 35.4 µg/mL
14,CC(=O)Nc1ccc(NCc2ccc(C)s2)cc1,> 39.1 µg/mL
15,O=C(N/N=C/c1ccccc1)C(O)c1ccccc1 (stereo not given),> 38.1 µg/mL
16,CCOC(=O)c1cc(CC)sc1/N=C/C1C(=O)CCCC1=O,19.5 µg/mL
17,COc1ccc(C2(CNS(=O)(=O)c3ccccc3)CCOCC2)cc1,46.6 µg/mL
18,CCCCCCCNc1cccc(C)c1,< 0.4 µg/mL
19,Cc1ccc(NCC(=O)N/N=C/c2ccc(C(=O)O)cc2)cc1,> 46.7 µg/mL
20,O=c1[nH]c2ccc(S(=O)(=O)N3CCCC3)cc2[nH]1,> 40.1 µg/mL
21,O=c1c2cc(NC(=S)N3CCCC3)ccc2nc2n1CCCCC2,6.1 µg/mL
22,Cl.N=C(N)N1CCc2ccccc21,28.1 µg/mL
23,CCOC(=O)C(=O)N1CCN(c2ccccc2OC)CC1,> 43.9 µg/mL
24,N#Cc1ccc2c(c1)nc1ccccn12,> 29 µg/mL

row,SMILES,solubility kinetic
1,COc1ccccc1N1C(=O)c2cccc3cccc(c23)C1=O,< 0.6 µg/mL
2,COc1ccc(C(=O)NCC(=O)OCC(=O)NC2CCCCCC2)cc1OC,> 58.9 µg/mL
3,Cn1cccc1/C=C(/C#N)c1ccc(F)cc1,2.9 µg/mL
4,COc1ccc(NC(=O)c2ccco2)c2ccccc12,> 40.1 µg/mL
5,O=C(c1ccc(Cl)c(S(=O)(=O)N2CCOCC2)c1)N1CCCCCC1,52.2 µg/mL
6,COc1ccccc1C1CCN(Cc2ccc(Cl)c(Cl)c2)CC1,< 0.8 µg/mL
7,Cc1ccccc1C(=O)N1CCC(C(=O)N2CCN(Cc3ccc4c(c3)OCO4)CC2)CC1,59.1 µg/mL
8,COc1ccc(Nc2nc3ccccc3c(=O)[nH]2)cc1,24.4 µg/mL
9,CCN(CC(=O)Nc1c(F)cccc1F)C(=O)c1ccccn1,> 47.9 µg/mL
10,COC(=O)CC1C(=O)NCCN1C(=O)c1ccc([N+](=O)[O-])cc1 (stereo not given),> 48.2 µg/mL
11,COc1ccc(NC(=S)Nc2ccccc2SC)c(OC)c1,47.5 µg/mL
12,O=c1oc2ccccc2c(CNc2ccccc2)c1[N+](=O)[O-],3.1 µg/mL
13,Nc1nc(SCc2ccccc2)c2[nH]cnc2n1,38.4 µg/mL
14,O=C(O)c1ccc(/C=C/c2nc3ccccc3c(=O)[nH]2)cc1,> 43.8 µg/mL
15,COc1ccc(OC)c(C(=O)NC2CCSc3ccccc32)c1 (stereo not given),12.1 µg/mL
16,Cc1cc(SCc2c(F)cccc2Cl)nc(=O)[nH]1,39.2 µg/mL
17,COc1ccc(N2C(=O)/C(=C/c3ccco3)C(=O)NC2=S)cc1,48.8 µg/mL
18,CCCn1c(=O)c(Br)cn(-c2ccccc2C)c1=O,48.2 µg/mL
19,Cl.NCC12CC3CC(C1)CC(c1ccc(Cl)cc1)(C3)C2,> 46.8 µg/mL
20,CSc1nc(=S)n(-c2cc(C)ccc2C)c(C)c1C(C)=O,> 47.8 µg/mL
21,CCOC(=O)C1CCN(c2ncnc3c(C)csc23)CC1,37.8 µg/mL
22,O=C(NCc1ccccc1C(F)(F)F)C1CCC(=O)N(C2CC2)C1 (stereo not given),> 51.1 µg/mL
23,COc1cc(NC(=O)COC(=O)c2ccc([N+](=O)[O-])s2)cc(OC)c1OC,10.4 µg/mL
24,CNc1nnc(-c2ccc(OC)cc2)s1,> 33.2 µg/mL

row,SMILES,solubility kinetic
1,Cc1ccc(NC(=O)c2cc3cccc([N+](=O)[O-])c3[nH]2)cc1,2.8 µg/mL
2,O=C(Nc1cc(Cl)ccc1N1CCOCC1)c1cccnc1Cl,49.7 µg/mL
3,CNC(=S)Nc1cccc(-c2cnc3ccccc3n2)c1,43.7 µg/mL
4,Cc1nc2ccccn2c1C(=O)CSc1ccccc1,> 42.4 µg/mL
5,Nc1ccccc1N1C(=O)c2cccc3cccc(c23)C1=O,4.3 µg/mL
6,CC(=O)Nc1ccc(NC(=O)CNC(=O)c2cccc(C)c2)cc1,20.4 µg/mL
7,CC(C)Cn1cnc2c1c(=O)n(C)c(=O)n2C,> 35.4 µg/mL
8,O=C1CCc2ccc(OCCCCN3CCN(c4cccc(Cl)c4Cl)CC3)cc2N1,< 0.3 µg/mL
9,Nc1ccc(C(=O)OCC(=O)Nc2cccc(S(=O)(=O)NC3=NCCCCC3)c2)cc1[N+](=O)[O-],4.7 µg/mL
10,CCOc1ccc(C(=O)NC(C)CCc2ccccc2)cc1 (stereo not given),2.5 µg/mL
11,N#CCC(=O)Nc1ncc(Cc2ccccc2Cl)s1,1 µg/mL
12,CCOC(=O)Cn1cc(C#N)c2ccccc21,> 34.2 µg/mL
13,Cc1nc(-c2ccccc2OC(F)(F)F)[nH]c(=O)c1Cl,43.2 µg/mL
14,CC1(C)CC(=O)C(C=NCCN2CCN(C(=O)CCl)CC2)=C(O)C1,> 53.4 µg/mL
15,CCOC(=O)c1oc2ccccc2c1NC(=O)C(C)(C)C,22.6 µg/mL
16,Cc1cccc(-c2noc(CCC(=O)NC3CCCCC3)n2)c1,3.4 µg/mL
17,O=C(CCNc1ccc(Br)cc1)c1cccc([N+](=O)[O-])c1,4.6 µg/mL
18,N#CCC(=O)Nc1ccc(C(=O)OCC(=O)c2c[nH]c3ccccc23)cc1,4.7 µg/mL
19,Clc1ccc(Cl)c(OCCN2CCCC2)c1,25.4 µg/mL
20,CSc1ncccc1C(=O)OCc1ccc([N+](=O)[O-])cc1,0.9 µg/mL
21,Cc1cc(N2CCCCC2C)nc(-c2ccccc2O)n1 (stereo not given),0.5 µg/mL
22,CCN(c1ccccc1)S(=O)(=O)c1cc(NC(=O)C2CC2)ccc1Cl,26.2 µg/mL
23,CCN(CC)S(=O)(=O)c1cc(NS(=O)(=O)c2cccs2)ccc1C,> 58.3 µg/mL
24,COC1CCCN(Cc2nc(Cc3ccccc3F)no2)C1 (stereo not given),37.9 µg/mL

row,SMILES,solubility kinetic
1,CCCCNC(=O)COC(=O)c1cc(C)oc1C,> 38 µg/mL
2,COc1cc(C(=O)OCC#N)ccc1OCc1c(C)noc1C,4 µg/mL
3,COCn1cnc(-c2ccccc2)c1-c1ccccc1,32.5 µg/mL
4,CC(=O)c1sc(C(C)(C)C)cc1NC(=O)CCC(=O)O,> 44.6 µg/mL
5,Cc1ccccc1CSCCC(=O)NCCc1ccccc1,9.8 µg/mL
6,CC(=O)NCCc1nc2ccccc2n1CCOc1ccccc1,> 48.5 µg/mL
7,Cc1ccc(C(=O)Nc2nc(-c3ccc(F)cc3)cs2)o1,4.4 µg/mL
8,COc1cc(OC)cc(C(=O)NCC(=O)N2CCN(S(=O)(=O)c3ccccc3F)CC2)c1,52.1 µg/mL
9,O=C(NCCCCc1ccccc1)c1ccccc1,14.4 µg/mL
10,COc1cccc(N2CCN(C(=S)Nc3ccc(F)cc3)CC2)c1,0.6 µg/mL
11,N#Cc1ccc(C(=O)OCC(=O)Nc2cccc(S(=O)(=O)NC3=NCCC3)c2)cc1,> 64 µg/mL
12,COc1c(Cl)cc(Cl)cc1C(=O)Nc1ccc(CN2CCOCC2)cc1,2.6 µg/mL
13,CCc1nnc(NC(=O)c2ccc(C)o2)s1,> 35.6 µg/mL
14,Cn1cccc1C(=O)OCC(=O)c1c[nH]c2ccccc12,9.9 µg/mL
15,Brc1cnc2nc(SCc3nc4ccccc4[nH]3)[nH]c2c1,1.2 µg/mL
16,O=C(CN1C(=O)NC(CCc2ccccc2)C1=O)Nc1ccc(F)c(F)c1F (stereo not given),4.5 µg/mL
17,COc1ccccc1C1CCN(Cc2ccccc2Cl)CC1,3.6 µg/mL
18,O=C(NCCc1ccc(F)cc1)N[C@@H](Cc1ccccc1)C(=O)O,> 49.6 µg/mL
19,COc1ccc2nc(/N=C/c3cccc(OC)c3O)sc2c1,> 47.2 µg/mL
20,COC(=O)c1ccc(CN2C(=O)NC(CC(C)C)C2=O)cc1 (stereo not given),> 45.7 µg/mL
21,Cc1ccc(NC(=S)NC(=O)C2CCCC2)c(Br)c1,4.2 µg/mL
22,CC(=O)N/C(=N/c1nc(C)cc(C)n1)Nc1cccc(C)c1C,4.9 µg/mL
23,CCn1c(=O)c2ccccc2n(CC(=O)NC2CCCCC2)c1=O,15.4 µg/mL
24,CC(COc1ccccc1)N(CCCl)Cc1ccccc1.Cl (stereo not given),45.8 µg/mL
